# What was measured:
# Type in all cases: cell-based
# E. coli W3110RL = test: microbe, parasite or virus in culture; conditions: for MIC E. coli W3110RL: E. coli with lpxC of R. leguminosarum, 22 hours at 37° C., MTT; for MIC: Escherichia coli, W3110RL, 22 h, read-out: MIC E. coli W3110RL
# E. coli W3110 = test: microbe, parasite or virus in culture; conditions: for MIC: Escherichia coli, W3110, 22 h, read-out: MIC E. coli W3110
# E. coli W3110PA = test: microbe, parasite or virus in culture; conditions: for MIC E. coli W3110PA: E. coli with lpxC of P. aeruginosa, 22 hours at 37° C., MTT; for MIC: Escherichia coli, W3110PA, 22 h, read-out: MIC E. coli W3110PA
# P. aeruginosa (PAO1) = test: MIC, P. aeruginosa; conditions: for MIC P. aeruginosa (PAO1): 22 hours at 37° C., MTT; for MIC: Pseudomonas aeruginosa, PAO1, 22 h, read-out: MIC P. aeruginosa (PAO1)
Structure (SMILES),MIC E. coli W3110RL (E. coli W3110RL),MIC E. coli W3110 (E. coli W3110),MIC E. coli W3110PA (E. coli W3110PA),MIC P. aeruginosa (PAO1) (P. aeruginosa (PAO1)),MIC (E. coli W3110RL) [µg/mL],MIC (E. coli W3110) [µg/mL],MIC (E. coli W3110PA) [µg/mL],MIC (P. aeruginosa (PAO1)) [µg/mL]
"Nc1ccc(C#CC#Cc2ccc(C(=O)N[C@@H](Cc3c[nH]c4ccccc34)C(=O)NO)cc2)cc1 [CPD-029, (2S)-2-({4′-[4′-(4′-aminophenyl)buta-1′,3′-diyn-1′-yl]phenyl}formamido)-N-hydroxy-3-(1′H-indol-3′-yl)propanamide]",E (>100 μg/mL),B (key: A: <1 μg/mL; B: 1-10 μg/mL; C: 11-50 μg/mL; D: 51-100 μg/mL; E: >100 μg/mL),E (>100 μg/mL),E (>100 μg/mL),–,–,–,–
"Nc1ccc(C#CC#Cc2ccc(C(=O)N3CCC[C@H]3C(=O)NO)cc2)cc1 [CPD-031, (2S)-1-({4′-[4′-(4′-aminophenyl)buta-1′,3′-diyn-1-yl]phenyl}carbonyl)-N-hydroxypyrrolidine-2-carboxamide]",E (>100 μg/mL),C (key: A: <1 μg/mL; B: 1-10 μg/mL; C: 11-50 μg/mL; D: 51-100 μg/mL; E: >100 μg/mL),E (>100 μg/mL),E (>100 μg/mL),–,–,–,–
"NCCCC[C@H](NC(=O)c1ccc(C#CC#Cc2ccc(N)cc2)cc1)C(=O)NO [CPD-032, (2S)-6-amino-2-({4′-[4′-(4′-aminophenyl)buta-1′,3′-diyn-1-yl]phenyl}formamido)-N-hydroxyhexanamide]",D (51-100 μg/mL),C (key: A: <1 μg/mL; B: 1-10 μg/mL; C: 11-50 μg/mL; D: 51-100 μg/mL; E: >100 μg/mL),C (11-50 μg/mL),C (11-50 μg/mL),–,–,–,–
"Nc1ccc(C#CC#Cc2ccc(C(=O)N[C@@H](Cc3ccc(O)cc3)C(=O)NO)cc2)cc1 [CPD-033, (2S)-2-({4′-[4′-(4′-aminophenyl)buta-1′,3′-diyn-1′-yl]phenyl}formamido)-N-hydroxy-3′-(4′-hydroxyphenyl)propanamide]",E (>100 μg/mL),B (key: A: <1 μg/mL; B: 1-10 μg/mL; C: 11-50 μg/mL; D: 51-100 μg/mL; E: >100 μg/mL),B (1-10 μg/mL),C (11-50 μg/mL),–,–,–,–
"N=C(N)NCCC[C@H](NC(=O)c1ccc(C#CC#Cc2ccc(N)cc2)cc1)C(=O)NO [CPD-034, (2S)-2-({4′-[4′-(4′-aminophenyl)buta-1′,3′-diyn-1-yl]phenyl}formamido)-5′-carbamimidamido-N-hydroxypentanamide]",D (51-100 μg/mL),C (key: A: <1 μg/mL; B: 1-10 μg/mL; C: 11-50 μg/mL; D: 51-100 μg/mL; E: >100 μg/mL),D (51-100 μg/mL),C (11-50 μg/mL),–,–,–,–
"C[C@@H](O)[C@H](NC(=O)c1ccc(C#CC#Cc2ccc(N)nc2)cc1)C(=O)NO [CPD-035, (2S,3R)-2-{4′-[[(2″-amino)pyridin-5″-yl]buta-1′,3′-diynyl]benzamido}-1,3-dihydroxybutanamide]",C (11-50 μg/mL),A (key: A: <1 μg/mL; B: 1-10 μg/mL; C: 11-50 μg/mL; D: 51-100 μg/mL; E: >100 μg/mL),B (1-10 μg/mL),A (<1 μg/mL),–,–,–,–
"C[C@@H](O)[C@H](NC(=O)c1ccc(C#CC#Cc2cnc(N)nc2)cc1)C(=O)NO [CPD-036, (2S,3R)-2-{4′-[[(2″-amino)pyrimidin-5″-yl]buta-1′,3′-diynyl]benzamido}-1,3-dihydroxybutanamide]",E (>100 μg/mL),B (key: A: <1 μg/mL; B: 1-10 μg/mL; C: 11-50 μg/mL; D: 51-100 μg/mL; E: >100 μg/mL),B (1-10 μg/mL),A (<1 μg/mL),–,–,–,–
"C[C@@H](O)[C@H](NC(=O)c1ccc(C#CC#Cc2cccnc2)cc1)C(=O)NO [CPD-038, (2S,3R)-2-{4′-[(pyridin-3″-yl]buta-1′,3′-diynyl]benzamido}-1,3-dihydroxybutanamide]",D (51-100 μg/mL),A (key: A: <1 μg/mL; B: 1-10 μg/mL; C: 11-50 μg/mL; D: 51-100 μg/mL; E: >100 μg/mL),B (1-10 μg/mL),A (<1 μg/mL),–,–,–,–
"C[C@@H](O)[C@H](NS(=O)(=O)c1ccc(C#CC#Cc2ccc(N)cc2)cc1)C(=O)NO [CPD-039, (2S,3R)-2-({4′-[4′-(4′-aminophenyl)buta-1′,3′-diyn-1′-yl]benzene}sulfonamido)-N,3-dihydroxybutanamide]",E (>100 μg/mL),B (key: A: <1 μg/mL; B: 1-10 μg/mL; C: 11-50 μg/mL; D: 51-100 μg/mL; E: >100 μg/mL),D (51-100 μg/mL),D (51-100 μg/mL),–,–,–,–
"C[C@@H](O)[C@H](NC(=O)c1ccc(C#CC#Cc2ccc(N)cc2)cn1)C(=O)NO [CPD-041, (2S,3R)-2-({5-[4-(4-aminophenyl)buta-1,3-diyn-1-yl]pyridin-2-yl}formamido)-N,3-dihydroxybutanamide]",–,–,–,–,11 to 50,< 1,1 to 10,1 to 10
"CC(N)C(C(=O)NO)c1c[nH]c2cc(C#CC#Cc3ccc(N)cc3)ccc12 (stereo not drawn) [CPD-042, 3-amino-2-{6′-[4′-(4′-aminophenyl)buta-1′,3′-diyn-1′-yl]-1′H-indol-3′-yl}-N-hydroxybutanamide]",–,–,–,–,51 to 100,1 to 10,51 to 100,51 to 100
"Nc1ccc(C#CC#Cc2ccc(C(=O)NC3CCN(O)C3=O)cc2)cc1 (stereo not drawn) [CPD-043, 4-((4-aminophenyl)buta-1,3-diynyl)-N-(1-hydroxy-2-oxopyrrolidin-3-yl)benzamide]",–,–,–,–,51 to 100,< 1,51 to 100,51 to 100
"Nc1ccc(C#CC#Cc2ccc(C(=O)N[C@@H]3CCN(O)C3=O)cc2)cc1 [CPD-044, (R)-4-((4-aminophenyl)buta-1,3-diynyl)-N-(1-hydroxy-2-oxopyrrolidin-3-yl)benzamide]",–,–,–,–,51 to 100,< 1,51 to 100,51 to 100
"C[C@@H](O)[C@H](NC(=O)c1ccc(C#CC#Cc2ccc(N)cc2)cc1)C(=O)NN [CPD-045, 4-((4-aminophenyl)buta-1,3-diynyl)-N-((2S,3R)-1-hydrazinyl-3-hydroxy-1-oxobutan-2-yl)benzamide]",–,–,–,–,51 to 100,1 to 10,51 to 100,51 to 100
"C[C@@H](O)[C@H](NC(=O)c1ccc(C#CC#Cc2ccc(N)cc2)cc1)C(=O)O [CPD-046, (2S,3R)-2-(4-((4-aminophenyl)buta-1,3-diynyl)benzamido)-3-hydroxybutanoic acid]",–,–,–,–,51 to 100,1 to 10,51 to 100,51 to 100
"C[C@@H](O)[C@H](NC(=O)c1ccc(C#CC#Cc2ccc(N)cc2)cc1)C(N)=O [CPD-047, N-((2S,3R)-1-amino-3-hydroxy-1-oxobutan-2-yl)-4-((4-aminophenyl)buta-1,3-diynyl)benzamide]",–,–,–,–,51 to 100,1 to 10,51 to 100,51 to 100
"CC(C)[C@@]1(NC(=O)c2ccc(C#CC#Cc3ccc(N)cc3)cc2)CCN(O)C1=O [CPD-048, (S)-4-((4-aminophenyl)buta-1,3-diynyl)-N-(1-hydroxy-3-isopropyl-2-oxopyrrolidin-3-yl)benzamide]",–,–,–,–,51 to 100,1 to 10,51 to 100,51 to 100
"Nc1ccc(C#CC#Cc2ccc(C(=O)N[C@H](C(=O)NO)[C@H](O)c3ccc(O)cc3)cc2)cc1 [CPD-049, 4-((4-aminophenyl)buta-1,3-diynyl)-N-((1R,2S)-1-hydroxy-3-(hydroxyamino)-1-(4-hydroxyphenyl)-3-oxopropan-2-yl)benzamide]",–,–,–,–,51 to 100,1 to 10,51 to 100,11 to 50
"Nc1ccc(C#CC#Cc2ccc(C(=O)N[C@H](C(=O)NO)[C@@H](O)c3ccc(O)cc3)cc2)cc1 [CPD-050, 4-((4-aminophenyl)buta-1,3-diynyl)-N-((1S,2S)-1-hydroxy-3-(hydroxyamino)-1-(4-hydroxyphenyl)-3-oxopropan-2-yl)benzamide]",–,–,–,–,11 to 50,< 1,< 1,1 to 10
"C[C@@](O)(c1ccc(O)cc1)C(NC(=O)c1ccc(C#CC#Cc2ccc(N)cc2)cc1)C(=O)NO (stereo partly drawn) [CPD-052, 4-((4-aminophenyl)buta-1,3-diynyl)-N-((3R)-3-hydroxy-1-(hydroxyamino)-3-(4-hydroxyphenyl)-1-oxobutan-2-yl)benzamide]",–,–,–,–,51 to 100,< 1,1 to 10,1 to 10
"C[C@H](O)[C@H](NC(=O)c1ccc(C#CC#Cc2ccc(N)cc2)cc1)C(=O)NO [CPD-053, (2S,3S)-2-{4′-[(4″-aminophenyl)buta-1′,3′-diynyl]benzamido}-1,3-dihydroxybutanamide]",–,–,–,–,51 to 100,< 1,< 1,< 1

# — patent publication US9738604B2, “Ethynylbenzene derivatives” (Duke University, priority 2010, dated 2017)
